What was measured:
[1] = biological target: T1, full-length B-Catenin (Uniprot ID P35222) (Homo sapiens, UniProt P35222); assay: Alphascreen binding assay (beta-catenin / biotin-TCF4 10-53)
T1 construct: 65 nM full-length B-Catenin (Uniprot ID P35222)
T1 sequence (P35222 1-781): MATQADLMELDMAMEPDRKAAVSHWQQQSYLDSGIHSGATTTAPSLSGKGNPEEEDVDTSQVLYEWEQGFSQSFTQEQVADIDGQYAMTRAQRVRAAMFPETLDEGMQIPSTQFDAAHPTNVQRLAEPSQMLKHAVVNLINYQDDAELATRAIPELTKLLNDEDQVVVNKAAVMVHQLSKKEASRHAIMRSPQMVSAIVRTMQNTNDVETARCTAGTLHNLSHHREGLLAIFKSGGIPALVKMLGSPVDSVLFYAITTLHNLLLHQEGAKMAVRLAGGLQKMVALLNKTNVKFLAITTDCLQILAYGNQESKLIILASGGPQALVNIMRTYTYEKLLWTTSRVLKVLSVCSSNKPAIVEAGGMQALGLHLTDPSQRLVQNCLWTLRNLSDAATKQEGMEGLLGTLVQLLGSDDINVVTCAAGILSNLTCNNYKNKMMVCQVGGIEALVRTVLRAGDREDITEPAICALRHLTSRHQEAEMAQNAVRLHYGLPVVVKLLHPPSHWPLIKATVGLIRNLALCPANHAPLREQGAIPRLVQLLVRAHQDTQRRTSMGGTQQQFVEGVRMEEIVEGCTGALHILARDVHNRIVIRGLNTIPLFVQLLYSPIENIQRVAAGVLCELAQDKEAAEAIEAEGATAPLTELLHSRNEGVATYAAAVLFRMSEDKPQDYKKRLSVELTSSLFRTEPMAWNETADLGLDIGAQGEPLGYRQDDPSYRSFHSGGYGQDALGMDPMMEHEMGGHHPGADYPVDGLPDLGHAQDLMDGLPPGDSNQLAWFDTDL
Procedure, shortened: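 Final concentrations: 65 nM full-length human β-catenin plus 10 nM biotin-TCF4(10-53) peptide, test peptide 3-fold from 10 uM to 5 nM, preincubated 15 min at 20 °C in Tris pH 8.0/250 mM NaCl buffer. Nickel-chelate AlphaScreen donor/acceptor beads then added for 60 min in the dark; duplicate reads fitted to 1:1 binding model with Hill slope.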

CHI Log D procedure = assay type: physicochemical; details: for CHI Log D: pH 7.4; for chromatographic logD: pH 7.4, CHI Log D

Compound | EC50 [1] | CHI Log D (CHI Log D procedure) | chromatographic logD (CHI Log D procedure)
CC(=O)N[C@@H](Cc1ccccc1)C(=O)N[C@@H](CC(=O)O)C(=O)N[C@@H](C)C(=O)N[C@]1(C)CCCCCCC=CCOC(=O)N2CC[C@@](C(=O)N[C@@H](Cc3ccccc3)C(=O)N[C@@H](Cc3c[nH]c4ccccc34)C(=O)N[C@@H](CCC(N)=O)C(N)=O)(C2)NC(=O)[C@H]([C@@H](C)O)NC(=O)[C@H](Cc2ccccc2)NC(=O)[C@H](C)NC(=O)[C@H](C)NC(=O)[C@H](CC(=O)O)NC(=O)[C@H](CC(=O)O)NC1=O [I-224, Ac-Phe-Asp-Ala-R8-Asp-Asp-Ala-Ala-Phe-Thr-PyrS-Phe-Trp-Gln-NH2] | 4.12 µM | 1.401 | 
CC(=O)N[C@@H](Cc1ccccc1)C(=O)N[C@@H](CC(=O)O)C(=O)N[C@@H](C)C(=O)N[C@]1(C)CCCCCCC=CCOC(=O)N2CC[C@@](C(=O)N[C@@H](Cc3c(F)c(F)c(F)c(F)c3F)C(=O)N[C@@H](Cc3c[nH]c4ccccc34)C(=O)N[C@@H](CCC(N)=O)C(N)=O)(C2)NC(=O)[C@H](C(C)C)NC(=O)[C@H](Cc2ccccc2)NC(=O)[C@H](C)NC(=O)[C@H](C)NC(=O)[C@H](CC(=O)O)NC(=O)[C@H](CC(=O)O)NC1=O [I-225, Ac-Phe-Asp-Ala-R8-Asp-Asp-Ala-Ala-Phe-Val-PyrS-Pff-Trp-Gln-NH2] | 7.63 µM | 1.497 | 
CC(=O)N[C@@H](Cc1ccccc1)C(=O)N[C@@H](CC(=O)O)C(=O)N[C@@H](C)C(=O)N[C@]1(C)CCCCCCC=CCOC(=O)N2CC[C@@](C(=O)N[C@@H](Cc3c(F)c(F)c(F)c(F)c3F)C(=O)N[C@@H](Cc3c[nH]c4ccccc34)C(=O)N[C@@H](CCC(N)=O)C(N)=O)(C2)NC(=O)[C@H](C(C)C)NC(=O)[C@H](Cc2ccccc2)NC(=O)[C@H](C)NC(=O)[C@H](C)NC(=O)[C@H](CC(=O)O)NC(=O)[C@H](CC(=O)O)NC1=O [I-226, Ac-Phe-Asp-Ala-R8-Asp-Asp-Ala-Ala-Phe-Val-PyrS-Pff-Trp-Gln-NH2] | 7.63 µM | 1.497 | 
CC(=O)N1CCC[C@]12CC=CCCCC1(CCCC=CCCCCCC[C@@](C)(C(=O)N[C@@H](Cc3ccccc3)C(=O)N[C@@H](Cc3c[nH]c4ccccc34)C(=O)N[C@@H](CCC(N)=O)C(N)=O)NC(=O)[C@H](C(C)C)NC(=O)[C@H](Cc3ccccc3)NC(=O)[C@H](C)NC(=O)[C@H](C)NC(=O)[C@H](CCC(=O)O)NC(=O)[C@H](Cc3ccccn3)NC1=O)NC(=O)[C@H](C)NC(=O)[C@H](CC(=O)O)NC2=O (stereo partly drawn) [I-229, Ac-PL3-Asp-Ala-B5-2pyrA-Glu-Ala-Ala-Phe-Val-S8-Phe-Trp-Gln-NH2] | 5.81 µM | 3.044 | 
CC(=O)N1CCC[C@]12CC=CCCCC1(CCCC=CCCCCCC[C@@](C)(C(=O)N[C@@H](Cc3ccccc3)C(=O)N[C@@H](Cc3c[nH]c4ccccc34)C(=O)N[C@@H](CCC(N)=O)C(N)=O)NC(=O)[C@H](C(C)C)NC(=O)[C@H](Cc3cccc(C(F)(F)F)c3)NC(=O)[C@H](C)NC(=O)[C@H](C)NC(=O)[C@H](CC(=O)O)NC(=O)[C@H](CC(=O)O)NC1=O)NC(=O)[C@H](C)NC(=O)[C@H](CC(=O)O)NC2=O (stereo partly drawn) [I-236, Ac-PL3-Asp-Ala-B5-Asp-Asp-Ala-Ala-3F3MeF-Val-S8-Phe-Trp-Gln-NH2] | 0.384 µM | 2.067 | 
CC(=O)N1CCC[C@]12CC=CCCCC1(CCCC=CCCCCCC[C@@](C)(C(=O)N[C@@H](Cc3ccccc3)C(=O)N[C@@H](Cc3c[nH]c4ccccc34)C(=O)N[C@@H](CCC(N)=O)C(N)=O)NC(=O)[C@H](C(C)C)NC(=O)[C@H](Cc3cccc(C(F)(F)F)c3)NC(=O)[C@H](C)NC(=O)[C@H](C)NC(=O)[C@H](CC(=O)O)NC(=O)[C@H](CC(=O)O)NC1=O)NC(=O)[C@H](C)NC(=O)[C@H](CC(=O)O)NC2=O (stereo partly drawn) [I-237, Ac-PL3-Asp-Ala-B5-Asp-Asp-Ala-Ala-3F3MeF-Val-S8-Phe-Trp-Gln-NH2] | 0.384 µM | 2.067 | 
CC(=O)N1CCC[C@]12CC=CCCCC1(CCCC=CCCCCCC[C@@](C)(C(=O)N[C@@H](Cc3ccccc3)C(=O)N[C@@H](Cc3c[nH]c4ccccc34)C(=O)N[C@@H](CCC(N)=O)C(N)=O)NC(=O)[C@H](C(C)C)NC(=O)[C@H](Cc3ccc(C(F)(F)F)cc3)NC(=O)[C@H](C)NC(=O)[C@H](C)NC(=O)[C@H](CC(=O)O)NC(=O)[C@H](CC(=O)O)NC1=O)NC(=O)[C@H](C)NC(=O)[C@H](CC(=O)O)NC2=O (stereo partly drawn) [I-240, Ac-PL3-Asp-Ala-B5-Asp-Asp-Ala-Ala-4F3MeF-Val-S8-Phe-Trp-Gln-NH2] | 3.47 µM | 2.074 | 

Further molecules by falling EC50 [1], results first:

EC50 [1] | CHI Log D (CHI Log D procedure) | chromatographic logD (CHI Log D procedure) | Compound
7.64 µM |  | 3.04 | CC(=O)N1CCC[C@]12CC=CCCCC1(CCCC=CCCCCCC[C@@](C)(C(=O)N[C@@H](Cc3ccccc3)C(=O)N[C@@H](Cc3c[nH]c4ccccc34)C(=O)N[C@@H](CCC(N)=O)C(N)=O)NC(=O)[C@H](C(C)C)NC(=O)[C@H](Cc3ccccc3)NC(=O)[C@H](C)NC(=O)[C@H](C)NC(=O)[C@H](Cc3ccc4ccccc4c3)NC(=O)[C@H](CC(=O)O)NC1=O)NC(=O)[C@H](C)NC(=O)[C@H](CC(=O)O)NC2=O (stereo partly drawn) [I-232, Ac-PL3-Asp-Ala-B5-Asp-2NapA-Ala-Ala-Phe-Val-S8-Phe-Trp-Gln-NH2]
6.53 µM |  | 3.02 | CC(=O)N1CCC[C@]12CC=CCCCC1(CCCC=CCCCCCC[C@@](C)(C(=O)N[C@@H](Cc3ccccc3)C(=O)N[C@@H](Cc3c[nH]c4ccccc34)C(=O)N[C@@H](CCC(N)=O)C(N)=O)NC(=O)[C@H](C(C)C)NC(=O)[C@H](Cc3ccccc3)NC(=O)[C@H](C)NC(=O)[C@H](C)NC(=O)[C@H](Cc3csc4ccccc34)NC(=O)[C@H](CC(=O)O)NC1=O)NC(=O)[C@H](C)NC(=O)[C@H](CC(=O)O)NC2=O (stereo partly drawn) [I-231, Ac-PL3-Asp-Ala-B5-Asp-BztA-Ala-Ala-Phe-Val-S8-Phe-Trp-Gln-NH2]
5.9 µM |  | 2.82 | CC(=O)N1CCC[C@]12CC=CCCCC1(CCCC=CCCCCCC[C@@](C)(C(=O)N[C@@H](Cc3ccccc3)C(=O)N[C@@H](Cc3c[nH]c4ccccc34)C(=O)N[C@@H](CCC(N)=O)C(N)=O)NC(=O)[C@H](C(C)C)NC(=O)[C@H](Cc3ccccc3)NC(=O)[C@H](C)NC(=O)[C@H](C)NC(=O)[C@H](Cc3c[nH]c4ccccc34)NC(=O)[C@H](CC(=O)O)NC1=O)NC(=O)[C@H](C)NC(=O)[C@H](CC(=O)O)NC2=O (stereo partly drawn) [I-233, Ac-PL3-Asp-Ala-B5-Asp-Trp-Ala-Ala-Phe-Val-S8-Phe-Trp-Gln-NH2]
4.91 µM | 2.098 |  | CC(=O)N1CCC[C@]12CC=CCCCC1(CCCC=CCCCCCC[C@@](C)(C(=O)N[C@@H](Cc3ccccc3)C(=O)N[C@@H](Cc3c[nH]c4ccccc34)C(=O)N[C@@H](CCC(N)=O)C(N)=O)NC(=O)[C@H](C(C)C)NC(=O)[C@H](Cc3ccc(C(F)(F)F)cc3)NC(=O)[C@H](C)NC(=O)[C@H](C)NC(=O)[C@H](CC(=O)O)NC(=O)[C@H](CC(=O)O)NC1=O)NC(=O)[C@H](C)NC(=O)[C@H](CC(=O)O)NC2=O (stereo partly drawn) [I-242, Ac-PL3-Asp-Ala-B5-Asp-Asp-Ala-Ala-4F3MeF-Val-S8-Phe-Trp-Gln-NH2]
3.47 µM | 2.074 |  | CC(=O)N1CCC[C@]12CC=CCCCC1(CCCC=CCCCCCC[C@@](C)(C(=O)N[C@@H](Cc3ccccc3)C(=O)N[C@@H](Cc3c[nH]c4ccccc34)C(=O)N[C@@H](CCC(N)=O)C(N)=O)NC(=O)[C@H](C(C)C)NC(=O)[C@H](Cc3ccc(C(F)(F)F)cc3)NC(=O)[C@H](C)NC(=O)[C@H](C)NC(=O)[C@H](CC(=O)O)NC(=O)[C@H](CC(=O)O)NC1=O)NC(=O)[C@H](C)NC(=O)[C@H](CC(=O)O)NC2=O (stereo partly drawn) [I-241, Ac-PL3-Asp-Ala-B5-Asp-Asp-Ala-Ala-4F3MeF-Val-S8-Phe-Trp-Gln-NH2]

Source: US20240116985A1, “STAPLED PEPTIDES AND METHODS THEREOF” (priority 2020, published 2024)
